# Measurements published in the supplement of paper PMC13380429.
# How the values were obtained:
# Details in all cases: 72 h
# HepG2 [1] = assay: cell viability relative to DMSO; higher = less toxic
# Vero E6 [2] = assay: as above
# Calu-3 [3] = assay: as above
# Caco-2 [4] = assay: as above
# U2OS [5] = assay: as above
# HepG2 [6] = assay: relative viability EC50 (midpoint between 100% and the lowest measured viability); higher = less toxic
# Vero E6 [7] = assay: as above
# Calu-3 [8] = assay: as above
# Caco-2 [9] = assay: as above
# U2OS [10] = assay: as above
# HepG2 [11] = assay: drug sensitivity score (DSS) for viability; higher = more toxic; extreme values may be limits of the assay
# Vero E6 [12] = assay: as above
# Calu-3 [13] = assay: as above
# Caco-2 [14] = assay: as above
# U2OS [15] = assay: as above
Compound,cell viability (HepG2 [1]; 1 nM) [%],cell viability (HepG2 [1]; 10 nM) [%],cell viability (HepG2 [1]; 100 nM) [%],cell viability (HepG2 [1]; 1000 nM) [%],cell viability (HepG2 [1]; 10000 nM) [%],cell viability (Vero E6 [2]; 1 nM) [%],cell viability (Vero E6 [2]; 10 nM) [%],cell viability (Vero E6 [2]; 100 nM) [%],cell viability (Vero E6 [2]; 1000 nM) [%],cell viability (Vero E6 [2]; 10000 nM) [%],cell viability (Calu-3 [3]; 1 nM) [%],cell viability (Calu-3 [3]; 10 nM) [%],cell viability (Calu-3 [3]; 100 nM) [%],cell viability (Calu-3 [3]; 1000 nM) [%],cell viability (Calu-3 [3]; 10000 nM) [%],cell viability (Caco-2 [4]; 1 nM) [%],cell viability (Caco-2 [4]; 10 nM) [%],cell viability (Caco-2 [4]; 100 nM) [%],cell viability (Caco-2 [4]; 1000 nM) [%],cell viability (Caco-2 [4]; 10000 nM) [%],cell viability (U2OS [5]; 1 nM) [%],cell viability (U2OS [5]; 10 nM) [%],cell viability (U2OS [5]; 100 nM) [%],cell viability (U2OS [5]; 1000 nM) [%],cell viability (U2OS [5]; 10000 nM) [%],relative viability EC50 (HepG2 [6]) [µM],relative viability EC50 (Vero E6 [7]) [µM],relative viability EC50 (Calu-3 [8]) [µM],relative viability EC50 (Caco-2 [9]) [µM],relative viability EC50 (U2OS [10]) [µM],drug sensitivity score (HepG2 [11]),drug sensitivity score (Vero E6 [12]),drug sensitivity score (Calu-3 [13]),drug sensitivity score (Caco-2 [14]),drug sensitivity score (U2OS [15])
NC1=N[C@@]2(c3cc(NC(=O)c4ccc(F)cn4)ccc3F)COC[C@H]2CS1,99.9,110,93.4,112,105,95.5,97.2,94.3,99.4,102,103,96.5,93.4,93.1,98.5,94.8,93.7,101,86,103,98.6,94.6,101,98.4,100,> 10,> 10,> 10,> 10,> 10,0,0,0,0,0
OB1OCc2cc(Cl)ccc21 [AN2718],120,107,107,94,108,101,99.8,94.7,96.9,103,100,89,90.6,102,92.8,93.8,102,82.2,98.8,82.7,101,98,96.1,98.2,98.7,> 10,> 10,> 10,> 10,> 10,0,0,0,0.4,0
O=C(CCCCC(=O)Nc1c(I)cc(I)c(C(=O)O)c1I)Nc1c(I)cc(I)c(C(=O)O)c1I [iodipamide],96,93.3,97.6,101,103,102,99.2,101,98.6,103,98,104,93.6,101,101,106,106,97.1,95.3,102,96.2,103,97.7,95.1,97.9,> 10,> 10,> 10,> 10,> 10,0,0,0,0,0
Fc1ccc(-c2nc3n(c2-c2ccncc2)CCS3)cc1,97.3,93.2,97.8,99.9,100,97.8,99.7,98.2,99.1,93,95.2,86.2,90.9,87.7,101,99.6,101,90.9,89.4,92,99,97.8,98.7,96.1,97.6,> 10,> 10,> 10,> 10,> 10,0,0,0,0.2,0
